US10961189B2, “Spiro-lactam NMDA receptor modulators and uses thereof” (Aptinyx Inc., priority 2016, dated 2021)
Where two headings read alike, the source gives them in different places.

Tests used:
NMDAR2A = molecular target: T1, NMDAR2A (Homo sapiens, UniProt Q12879); experiment: [3H]MK-801 binding in NMDAR expressing HEK cell membranes (facilitation of NMDAR activation); format: biochemical; details: 50 μM glutamate; for EC50: read-out: B: log EC50 (converted); for Emax: 0.25 h, read-out: A: % maximal [3H]MK-801 binding relative to 1 mM glycine
T1 construct: expressed in transfected cells; host or cells: HEK cells (membrane extract)
Procedure: (§1) Assays were conducted as described by Moskal et al., “GLYX-13: a monoclonal antibody-derived peptide that acts as an N-methyl-D-aspartate receptor modulator,” Neuropharmacology, 49, 1077-87, 2005. These studies were designed to determine if the test compounds act to facilitate NMDAR activation in NMDAR2A, NMDAR2B, NMDAR2C or NMDAR2D expressing HEK cell membranes as measured by increases in [^3H]MK-801 binding.
(§2) In the assay, 300 μg of NMDAR expressing HEK cell membrane extract protein was preincubated for 15 minutes at 25° C. in the presence of saturating concentrations of glutamate (50 μM) and varying concentrations of test compound (1×10^15M−1×10^−7M), or 1 mM glycine. Following the addition of 0.3 μCi of [^3H]MK-801 (22.5 Ci/mmol), reactions were again incubated for 15 minutes at 25° C. (nonequilibrium conditions). Bound and free [^3H]MK-801 were separated via rapid filtration using a Brandel apparatus.
(§3) In analyzing the data, the DPM (disintegrations per minute) of [^3H]MK-801 remaining on the filter were measured for each concentration of test compound or for 1 mM glycine. The DPM values for each concentration of a ligand (N=2) were averaged. The baseline value was determined from the best fit curve of the DPM values modeled using the GraphPad program and the log(agonist) vs. response (three parameters) algorithm was then subtracted from all points in the dataset. The % maximal [^3H]MK-801 binding was then calculated relative to that of 1 mM glycine: all baseline subtracted DPM values were divided by the average value for 1 mM glycine. The EC50 and % maximal activity were then obtained from the best fit curve of the % maximal [^3H]MK-801 binding data modelled using the GraphPad program and the log(agonist) vs. response (three parameters) algorithm.
(§4) The tables below summarize the results for the wild type NMDAR agonists NMDAR2A, NMDAR2B, NMDAR2C, and NMDAR2D, and whether the compound is not an agonist (−), is an agonist (+), or is a strong agonist (++), where column A is based on the % maximal [^3H]MK-801 binding relative to 1 mM glycine (−=0; <100%=+; and >100%=++); and column B is based on log EC50 values (0=−; ≥1×10^−9 M (e.g., −8)=+; and <1×10^−9 M (e.g., −10)=++).

NMDAR2B = molecular target: T2, NMDAR2B (Homo sapiens, UniProt Q13224); experiment: as above; format: biochemical; details: 50 μM glutamate; for Emax: 0.25 h, read-out: A: % maximal [3H]MK-801 binding relative to 1 mM glycine; for EC50: read-out: B: log EC50 (converted)
T2 construct: expressed in transfected cells; host or cells: HEK cells (membrane extract)
Procedure: as §1, §2, §3, §4

IV pharmacokinetics = format: in vivo, Sprague Dawley rats; details: rat, normal saline (* in 5% NMP, 5% Solutol HS, 90% normal saline); for AUC(0-t) / half-life / C0 / Vd: Sprague-Dawley, in vivo; for C0: read-out: C0; for Vd: read-out: Vss
Excerpt: The table below summarizes the results of the IV pharmacokinetics.

[1] = oral pharmacokinetics (plasma, brain, CSF); format: in vivo, Sprague Dawley rats; details: rat, per os 10 mg/kg; for AUC(0-t) / bioavailability / Tmax / Cmax: Sprague-Dawley, plasma, po; for Tmax: normal saline (* in 5% NMP, 5% Solutol HS, 90% normal saline), read-out: Tmax; for Cmax: read-out: Cmax
Procedure: In another experiment, Sprague Dawley rats were dosed per os using a normal saline formulation containing 10 mg/kg of the compounds identified in the table below (except for the compounds marked with an asterisk (“*”) that were delivered in 5% NMP, 5% Solutol® HS and 90% normal saline formulation). Plasma, brain, and CSF samples were analyzed at various time points over a 24 hour period.

T1 sequence (Q12879 23-1464, species assumed, other chains not shown): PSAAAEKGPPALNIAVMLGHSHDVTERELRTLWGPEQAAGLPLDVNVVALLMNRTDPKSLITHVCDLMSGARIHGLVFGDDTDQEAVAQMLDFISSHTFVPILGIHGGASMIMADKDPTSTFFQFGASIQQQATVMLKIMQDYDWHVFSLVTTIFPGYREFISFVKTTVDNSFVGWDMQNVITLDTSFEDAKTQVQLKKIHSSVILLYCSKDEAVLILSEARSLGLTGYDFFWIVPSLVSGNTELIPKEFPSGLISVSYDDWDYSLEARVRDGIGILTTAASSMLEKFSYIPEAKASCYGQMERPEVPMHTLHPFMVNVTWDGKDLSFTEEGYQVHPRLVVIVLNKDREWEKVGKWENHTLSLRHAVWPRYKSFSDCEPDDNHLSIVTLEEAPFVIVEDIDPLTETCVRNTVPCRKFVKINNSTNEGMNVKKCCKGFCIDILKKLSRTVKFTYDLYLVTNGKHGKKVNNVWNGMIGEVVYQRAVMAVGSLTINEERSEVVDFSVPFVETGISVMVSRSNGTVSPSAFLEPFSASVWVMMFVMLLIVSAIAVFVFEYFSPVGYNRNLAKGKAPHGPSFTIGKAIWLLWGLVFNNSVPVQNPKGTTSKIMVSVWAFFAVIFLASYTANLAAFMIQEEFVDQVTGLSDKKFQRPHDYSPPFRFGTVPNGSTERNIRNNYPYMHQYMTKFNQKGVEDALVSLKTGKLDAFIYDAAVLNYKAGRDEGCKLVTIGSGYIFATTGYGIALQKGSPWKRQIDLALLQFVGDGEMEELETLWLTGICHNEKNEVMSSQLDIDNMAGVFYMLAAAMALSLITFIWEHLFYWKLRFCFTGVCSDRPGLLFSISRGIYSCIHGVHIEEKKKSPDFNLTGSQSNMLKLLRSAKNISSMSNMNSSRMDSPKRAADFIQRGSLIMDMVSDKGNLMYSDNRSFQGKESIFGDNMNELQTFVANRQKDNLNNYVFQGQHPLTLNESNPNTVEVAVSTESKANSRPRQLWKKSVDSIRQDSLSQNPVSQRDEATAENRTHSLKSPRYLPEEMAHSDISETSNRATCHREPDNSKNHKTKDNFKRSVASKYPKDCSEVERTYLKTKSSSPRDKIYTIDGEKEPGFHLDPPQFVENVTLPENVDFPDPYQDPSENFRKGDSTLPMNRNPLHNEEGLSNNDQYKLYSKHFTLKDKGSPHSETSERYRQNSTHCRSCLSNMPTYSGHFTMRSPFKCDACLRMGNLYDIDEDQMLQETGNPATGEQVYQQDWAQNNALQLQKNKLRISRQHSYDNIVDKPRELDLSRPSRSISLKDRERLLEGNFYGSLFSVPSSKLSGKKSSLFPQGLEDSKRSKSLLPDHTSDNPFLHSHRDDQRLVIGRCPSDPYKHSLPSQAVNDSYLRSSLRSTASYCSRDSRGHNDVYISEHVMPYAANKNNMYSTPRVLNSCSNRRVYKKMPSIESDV
T2 sequence (Q13224 27-1484, species assumed, other chains not shown): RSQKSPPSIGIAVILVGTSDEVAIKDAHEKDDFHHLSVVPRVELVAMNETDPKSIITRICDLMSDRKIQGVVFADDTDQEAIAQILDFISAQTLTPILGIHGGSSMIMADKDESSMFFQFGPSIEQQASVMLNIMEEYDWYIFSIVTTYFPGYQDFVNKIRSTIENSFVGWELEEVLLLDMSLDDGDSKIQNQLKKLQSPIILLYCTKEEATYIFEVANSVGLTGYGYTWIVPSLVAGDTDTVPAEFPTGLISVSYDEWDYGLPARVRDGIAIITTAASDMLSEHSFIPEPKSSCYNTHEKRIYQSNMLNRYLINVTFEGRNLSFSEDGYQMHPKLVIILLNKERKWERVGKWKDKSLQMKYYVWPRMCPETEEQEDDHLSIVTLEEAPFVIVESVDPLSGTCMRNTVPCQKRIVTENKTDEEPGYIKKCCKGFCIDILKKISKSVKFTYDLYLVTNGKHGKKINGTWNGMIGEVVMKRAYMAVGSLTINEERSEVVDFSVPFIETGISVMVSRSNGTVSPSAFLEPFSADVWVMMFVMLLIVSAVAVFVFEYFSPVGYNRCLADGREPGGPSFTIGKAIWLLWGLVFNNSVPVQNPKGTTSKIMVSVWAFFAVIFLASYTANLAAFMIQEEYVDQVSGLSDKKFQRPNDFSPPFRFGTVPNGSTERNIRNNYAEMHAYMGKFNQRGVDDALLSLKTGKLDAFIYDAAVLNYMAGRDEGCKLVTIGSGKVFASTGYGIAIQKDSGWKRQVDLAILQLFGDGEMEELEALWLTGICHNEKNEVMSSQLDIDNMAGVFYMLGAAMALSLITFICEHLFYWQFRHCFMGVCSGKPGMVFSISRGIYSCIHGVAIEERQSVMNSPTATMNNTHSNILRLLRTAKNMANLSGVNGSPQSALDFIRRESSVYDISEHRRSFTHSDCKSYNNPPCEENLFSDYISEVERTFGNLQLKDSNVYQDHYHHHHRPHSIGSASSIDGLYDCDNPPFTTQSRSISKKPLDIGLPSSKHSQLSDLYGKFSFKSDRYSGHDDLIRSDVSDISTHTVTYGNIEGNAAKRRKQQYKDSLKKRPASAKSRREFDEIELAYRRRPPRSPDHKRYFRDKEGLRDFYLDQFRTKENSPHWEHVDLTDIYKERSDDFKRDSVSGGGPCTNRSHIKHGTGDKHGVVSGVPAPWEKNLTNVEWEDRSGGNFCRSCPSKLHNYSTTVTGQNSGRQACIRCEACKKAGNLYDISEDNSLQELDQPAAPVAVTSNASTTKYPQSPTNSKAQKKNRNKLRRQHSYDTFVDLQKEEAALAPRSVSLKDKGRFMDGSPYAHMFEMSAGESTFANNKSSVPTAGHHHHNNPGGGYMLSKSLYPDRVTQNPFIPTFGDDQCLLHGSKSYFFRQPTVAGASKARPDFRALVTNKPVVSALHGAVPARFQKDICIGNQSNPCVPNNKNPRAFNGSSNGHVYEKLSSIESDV

Row | SMILES | EC50 (NMDAR2A) | Emax (NMDAR2B) | A: % maximal [3H]MK-801 binding relative to 1 mM glycine (NMDAR2A) | A: % maximal [3H]MK-801 binding relative to 1 mM glycine (NMDAR2B) | EC50 (NMDAR2B) | Emax (NMDAR2A) | CI (IV pharmacokinetics; intravenous 2 mg/kg) | CSF Cmax [1] | Brain Cmax [1] | other results
1 | CC1CCC2(CC1)CN([C@H](C(N)=O)[C@@H](C)O)C2=O (mixture of isomers) [Compound AN, (2S,3R)-3-hydroxy-2-(7-methyl-1-oxo-2-azaspiro[3.5]nonan-2-yl)butanamide] | < 1 nM | 0% |  |  |  | < 100% | 22.44 mL/min/kg | 1384.82 ng/mL | 1501.76 ng/mL | AUC(0-t) (IV pharmacokinetics; iv, 2 mg/kg): 1470 ng·h/mL; half-life (IV pharmacokinetics; iv, 2 mg/kg): 19.2 min; C0 (IV pharmacokinetics; iv, 2 mg/kg): 3100 ng/mL; Vd (IV pharmacokinetics; iv, 2 mg/kg): 0.59 L/kg; AUC(0-t) ([1]; 10 mg/kg): 4850 ng·h/mL; bioavailability ([1]; 10 mg/kg): 66%; Tmax ([1]; 10 mg/kg): 15 min; Cmax ([1]; 10 mg/kg): 4330 ng/mL
2 | COc1ccc(CN2CC3(CCC(OCc4ccccc4)CC3)C2=O)cc1 (single isomer, unassigned) [AE, 7-(benzyloxy)-2-(4-methoxybenzyl)-2-azaspiro[3.5]nonan-1-one] | < 1 nM |  | + (<100%=+) | − (−=0) |  |  |  |  |  | 
3 | CC1CCC2(CC1)CN(C(CCC(N)=O)C(N)=O)C2=O (single isomer, unassigned) [BE, 2-(7-methyl-1-oxo-2-azaspiro[3.5]nonan-2-yl)pentanediamide] |  | < 100% | − (−=0) |  | < 1 nM |  |  |  |  | 
4 | CC1CCC2(CC1)CN(C(CO)C(=O)O)C2=O (single isomer, unassigned) [EM, 3-hydroxy-2-(7-methyl-1-oxo-2-azaspiro[3.5]nonan-2-yl)propanoic acid] | < 1 nM |  |  | − (−=0) |  | < 100% |  |  |  | 
5 | CC1CCC2(CC1)CN(C(CO)C(=O)O)C2=O (single isomer, unassigned) [EN, 3-hydroxy-2-(7-methyl-1-oxo-2-azaspiro[3.5]nonan-2-yl)propanoic acid] | < 1 nM |  | + (<100%=+) | + (<100%=+) | < 1 nM |  | 19.38 mL/min/kg | 22 ng/mL | 61 ng/mL | AUC(0-t) (IV pharmacokinetics; iv, 2 mg/kg): 1760 ng·h/mL; half-life (IV pharmacokinetics; iv, 2 mg/kg): 440 min; C0 (IV pharmacokinetics; iv, 2 mg/kg): 9440 ng/mL; Vd (IV pharmacokinetics; iv, 2 mg/kg): 1.16 L/kg; AUC(0-t) ([1]; 10 mg/kg): 2210 ng·h/mL; bioavailability ([1]; 10 mg/kg): 25%; Tmax ([1]; 10 mg/kg): 15 min; Cmax ([1]; 10 mg/kg): 1490 ng/mL
6 | O=C1NCC12CCC(OCc1ccccc1)CC2 (stereo not shown) [AJ, 7-(benzyloxy)-2-azaspiro[3.5]nonan-1-one] |  | 0% |  |  |  | 0% |  |  |  | 
7 | O=C1NCC12CCC(O)CC2 (stereo not shown) [AK, 7-hydroxy-2-azaspiro[3.5]nonan-1-one] |  |  |  | − (−=0) |  | 0% |  |  |  | 
8 | CC1CCC2(CC1)CN(CC(N)=O)C2=O (stereo not shown) [Compound BC, 2-(7-methyl-1-oxo-2-azaspiro[3.5]nonan-2-yl)acetamide] | < 1 nM | 0% |  |  |  | < 100% | 145.13 mL/min/kg | 1362 ng/mL | 2321 ng/mL | AUC(0-t) (IV pharmacokinetics; iv, 2 mg/kg): 233 ng·h/mL; half-life (IV pharmacokinetics; iv, 2 mg/kg): 13.2 min; C0 (IV pharmacokinetics; iv, 2 mg/kg): 658 ng/mL; Vd (IV pharmacokinetics; iv, 2 mg/kg): 2.67 L/kg; AUC(0-t) ([1]; 10 mg/kg): 612 ng·h/mL; bioavailability ([1]; 10 mg/kg): 52%; Tmax ([1]; 10 mg/kg): 15 min; Cmax ([1]; 10 mg/kg): 869 ng/mL

More lines, main results first:

Row | EC50 (NMDAR2A) | Emax (NMDAR2B) | A: % maximal [3H]MK-801 binding relative to 1 mM glycine (NMDAR2A) | A: % maximal [3H]MK-801 binding relative to 1 mM glycine (NMDAR2B) | EC50 (NMDAR2B) | SMILES | Emax (NMDAR2A) | CI (IV pharmacokinetics; intravenous 2 mg/kg) | CSF Cmax [1] | Brain Cmax [1] | other results
9 |  |  | − (−=0) | + (<100%=+) | < 1 nM | COc1ccc(CN2CC3(CCC(OCc4ccccc4)CC3)C2=O)cc1 (single isomer, unassigned) [AF, 7-(benzyloxy)-2-(4-methoxybenzyl)-2-azaspiro[3.5]nonan-1-one] |  |  |  |  | 
10 |  | 0% |  |  |  | COc1ccc(CN2CC3(CCC(C)CC3)C2=O)cc1 (stereo not shown) [Compound AC, 2-(4-methoxybenzyl)-7-methyl-2-azaspiro[3.5]nonan-1-one] | 0% |  |  |  | 
11 |  | 0% |  |  |  | C[C@@H](O)[C@@H](C(N)=O)N1CC2(CCC(O)CC2)C1=O (stereo partly drawn) [Compound AM, (2S,3R)-3-hydroxy-2-(7-hydroxy-1-oxo-2-azaspiro[3.5]nonan-2-yl)butanamide] | 0% |  |  |  | 
12 | < 1 nM | 0% |  |  |  | CC1CCC2(CC1)CN([C@@H](CCC(=O)O)C(=O)O)C2=O (stereo partly drawn) [EQ, (S)-2-(7-methyl-1-oxo-2-azaspiro[3.5]nonan-2-yl)pentanedioic acid] | < 100% |  |  |  | 
13 | < 1 nM | > 100% |  |  | < 1 nM | O=C1NCC12CCC(NCc1ccccc1)CC2 (stereo not shown) [EX] | < 100% | 50.52 mL/min/kg | 459.46 ng/mL | 2799.98 ng/mL | AUC(0-t) (IV pharmacokinetics; intravenous 2 mg/kg): 659 ng·h/mL; half-life (IV pharmacokinetics; intravenous 2 mg/kg): 70.8 min; C0 (IV pharmacokinetics; intravenous 2 mg/kg): 1340 ng/mL; Vd (IV pharmacokinetics; intravenous 2 mg/kg): 2.71 L/kg; bioavailability [1]: 100%; Tmax [1]: 120 min; AUC(0-t) [1]: 7380 ng·h/mL; Cmax [1]: 3190 ng/mL
14 |  | < 100% | − (−=0) |  | < 1 nM | CN(Cc1ccccc1)C1CCC2(CC1)CNC2=O (stereo not shown) [EY] |  | 27.44 mL/min/kg | 539.09 ng/mL | 1833.34 ng/mL | AUC(0-t) (IV pharmacokinetics; intravenous 2 mg/kg): 1210 ng·h/mL; half-life (IV pharmacokinetics; intravenous 2 mg/kg): 33.6 min; C0 (IV pharmacokinetics; intravenous 2 mg/kg): 2100 ng/mL; Vd (IV pharmacokinetics; intravenous 2 mg/kg): 1.09 L/kg; bioavailability [1]: 48%; Tmax [1]: 30 min; AUC(0-t) [1]: 2920 ng·h/mL; Cmax [1]: 1130 ng/mL
15 | < 1 nM |  | + (<100%=+) | + (<100%=+) | < 1 nM | CN(Cc1ccccc1)C1CCC2(CC1)CNC2=O (stereo not shown) [EZ] |  |  |  |  | 
16 |  |  | − (−=0) | − (−=0) |  | CCN(Cc1ccccc1)C1CCC2(CC1)CNC2=O (stereo not shown) [FA] |  |  |  |  | 
17 | < 1 nM |  | + (<100%=+) | + (<100%=+) | < 1 nM | CCN(Cc1ccccc1)C1CCC2(CC1)CNC2=O (stereo not shown) [FB] |  | 41.98 mL/min/kg | 981.8 ng/mL | 3632.82 ng/mL | AUC(0-t) (IV pharmacokinetics; intravenous 2 mg/kg): 782 ng·h/mL; half-life (IV pharmacokinetics; intravenous 2 mg/kg): 45 min; C0 (IV pharmacokinetics; intravenous 2 mg/kg): 981 ng/mL; Vd (IV pharmacokinetics; intravenous 2 mg/kg): 2.33 L/kg; bioavailability [1]: 87%; Tmax [1]: 30 min; AUC(0-t) [1]: 3410 ng·h/mL; Cmax [1]: 1590 ng/mL
18 | < 1 nM | 0% | + (<100%=+) |  |  | O=C1N(OCc2ccccc2)CC12CCC(O)CC2 (stereo not shown) [FE] |  |  |  |  | 
19 |  |  | − (−=0) | − (−=0) |  | O=C1N(OCc2ccccc2)CC12CCC(O)CC2 (stereo not shown) [FF] |  |  |  |  | 
